Laboratory results published in ChEMBL document CHEMBL1201862, “PubChem BioAssay data set” (2004).
One block for each compound: values may come before it. Calls of active or inactive are those of the source.

What was measured:
Tumor necrosis factor = Tumor necrosis factor (Homo sapiens, UniProt P01375); experiment: analog potency on TNFa NF-kB signaling – cell-based, revised, SAR follow-up (AID 2337); assay type: functional
HEK293 [1] = experiment: inhibition of NOD1-driven NF-kB reporter – cell-based, luminescence, uHTS, primary screen (AID 1578); assay type: functional; details: Homo sapiens
HEK293 [2] = experiment: cells; details: Homo sapiens
HEK293 [3] = experiment: cells; assay type: functional, cell-based; details: Homo sapiens
[4] = biological target: Nucleotide-binding oligomerization domain-containing protein 1 (Homo sapiens, UniProt Q9Y239); experiment: blockers of NOD1 pathway activity – revised, SAR follow-up (AID 2333); assay type: functional
Sequence of Nucleotide-binding oligomerization domain-containing protein 1 (Q9Y239 whole entry, the tested form may be a part): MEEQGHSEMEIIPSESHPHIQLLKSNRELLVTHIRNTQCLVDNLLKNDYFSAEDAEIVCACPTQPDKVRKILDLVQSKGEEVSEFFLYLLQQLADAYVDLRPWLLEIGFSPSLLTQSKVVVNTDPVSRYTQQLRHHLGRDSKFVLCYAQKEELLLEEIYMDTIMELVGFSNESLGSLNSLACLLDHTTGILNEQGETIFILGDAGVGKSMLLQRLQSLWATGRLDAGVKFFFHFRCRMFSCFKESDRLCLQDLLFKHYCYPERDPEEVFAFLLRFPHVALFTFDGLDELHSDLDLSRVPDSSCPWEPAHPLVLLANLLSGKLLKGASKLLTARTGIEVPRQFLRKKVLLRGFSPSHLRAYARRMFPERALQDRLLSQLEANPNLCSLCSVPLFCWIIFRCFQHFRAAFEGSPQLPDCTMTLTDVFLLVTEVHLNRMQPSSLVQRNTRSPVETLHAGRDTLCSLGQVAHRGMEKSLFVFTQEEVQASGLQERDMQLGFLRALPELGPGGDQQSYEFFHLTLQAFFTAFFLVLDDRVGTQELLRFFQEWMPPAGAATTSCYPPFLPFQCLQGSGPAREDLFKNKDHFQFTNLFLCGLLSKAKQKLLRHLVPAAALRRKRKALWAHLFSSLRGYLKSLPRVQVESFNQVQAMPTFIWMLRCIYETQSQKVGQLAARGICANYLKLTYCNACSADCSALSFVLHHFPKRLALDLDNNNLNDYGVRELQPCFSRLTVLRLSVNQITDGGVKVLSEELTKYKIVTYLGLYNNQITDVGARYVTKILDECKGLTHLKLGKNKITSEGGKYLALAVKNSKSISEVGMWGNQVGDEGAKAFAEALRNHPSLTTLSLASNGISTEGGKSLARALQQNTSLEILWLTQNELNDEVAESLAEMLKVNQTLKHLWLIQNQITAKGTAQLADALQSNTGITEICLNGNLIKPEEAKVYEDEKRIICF

HEK293 [5] = experiment: cells; assay type: functional, cell-based; details: Homo sapiens; remark: listed apart in the source
HEK293 [6] = experiment: NOD2 signaling inhibitors in MDP-stimulated cells, cell-based, uHTS, luminescence (AID 2001); assay type: functional; details: Homo sapiens
[7] = biological target: Voltage-dependent T-type calcium channel subunit alpha-1H (Homo sapiens, UniProt O95180); assay type: functional;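 note: channel activity triggered by adding a high calcium stimulation buffer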
[8] = biological target: Sphingosine 1-phosphate receptor 2 (Homo sapiens, UniProt O95136); experiment: Late stage counterscreen assay for S1P4 antagonists: Fluorescence dose response cell-based screening assay for antagonists of the Sphingosine 1-Phosphate Receptor 2 (S1P2). [Related pubchem assays (depositor defined):AID1510, AID1524, AID1692, AID1853, AID2332, AID489009, AID489017]; assay type: functional
Sequence of Sphingosine 1-phosphate receptor 2 (O95136 whole entry): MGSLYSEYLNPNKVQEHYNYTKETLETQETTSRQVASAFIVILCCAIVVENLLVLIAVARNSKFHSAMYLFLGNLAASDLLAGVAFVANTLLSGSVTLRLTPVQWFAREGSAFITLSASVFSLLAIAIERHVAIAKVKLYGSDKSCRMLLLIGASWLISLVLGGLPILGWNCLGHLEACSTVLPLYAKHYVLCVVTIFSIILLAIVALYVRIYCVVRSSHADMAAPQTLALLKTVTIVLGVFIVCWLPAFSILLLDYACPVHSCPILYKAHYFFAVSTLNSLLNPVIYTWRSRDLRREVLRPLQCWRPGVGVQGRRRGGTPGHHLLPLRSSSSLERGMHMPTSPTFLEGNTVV

[9] = biological target: Sphingosine 1-phosphate receptor 1 (Homo sapiens, UniProt P21453); experiment: Late stage counterscreen assay for S1P4 antagonists: Fluorescence dose response cell-based screening assay for antagonists of the Sphingosine 1-Phosphate Receptor 1 (S1P1). [Related pubchem assays (depositor defined):AID1510, AID1524, AID1692, AID1853, AID2332, AID489009, AID489017]; assay type: functional
Sequence of Sphingosine 1-phosphate receptor 1 (P21453 whole entry): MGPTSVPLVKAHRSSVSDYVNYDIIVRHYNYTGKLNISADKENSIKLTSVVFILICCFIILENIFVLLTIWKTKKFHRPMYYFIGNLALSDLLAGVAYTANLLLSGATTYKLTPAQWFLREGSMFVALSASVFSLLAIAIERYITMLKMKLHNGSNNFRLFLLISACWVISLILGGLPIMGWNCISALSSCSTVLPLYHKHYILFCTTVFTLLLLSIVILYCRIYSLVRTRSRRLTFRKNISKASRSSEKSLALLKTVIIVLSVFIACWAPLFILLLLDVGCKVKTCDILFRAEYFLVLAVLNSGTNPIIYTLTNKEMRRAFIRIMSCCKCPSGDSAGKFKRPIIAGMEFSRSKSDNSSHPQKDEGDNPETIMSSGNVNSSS

[10] = biological target: Sphingosine 1-phosphate receptor 3 (Homo sapiens, UniProt Q99500); experiment: Late stage counterscreen assay for S1P4 antagonists: Fluorescence dose response cell-based screening assay for antagonists of the Sphingosine 1-Phosphate Receptor 3 (S1P3). [Related pubchem assays (depositor defined):AID1510, AID1524, AID1692, AID1853, AID2332, AID489009, AID489017]; assay type: functional
Sequence of Sphingosine 1-phosphate receptor 3 (Q99500 whole entry): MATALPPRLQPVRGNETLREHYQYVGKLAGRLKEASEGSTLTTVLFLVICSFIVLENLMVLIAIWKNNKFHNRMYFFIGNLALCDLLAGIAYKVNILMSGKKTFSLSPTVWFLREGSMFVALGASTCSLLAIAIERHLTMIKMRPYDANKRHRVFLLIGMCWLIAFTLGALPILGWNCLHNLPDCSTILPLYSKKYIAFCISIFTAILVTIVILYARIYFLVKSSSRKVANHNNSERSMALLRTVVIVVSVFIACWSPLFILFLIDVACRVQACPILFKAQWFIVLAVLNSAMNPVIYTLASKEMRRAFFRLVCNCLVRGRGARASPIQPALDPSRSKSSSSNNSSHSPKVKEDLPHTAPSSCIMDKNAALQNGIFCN

[11] = biological target: Sphingosine 1-phosphate receptor 5 (Homo sapiens, UniProt Q9H228); experiment: Late stage counterscreen assay for S1P4 antagonists: Fluorescence dose response cell-based screening assay for antagonists of the Sphingosine 1-Phosphate Receptor 5 (S1P5). [Related pubchem assays (depositor defined):AID1510, AID1524, AID1692, AID1853, AID2332, AID489009, AID489017]; assay type: functional
Sequence of Sphingosine 1-phosphate receptor 5 (Q9H228 whole entry): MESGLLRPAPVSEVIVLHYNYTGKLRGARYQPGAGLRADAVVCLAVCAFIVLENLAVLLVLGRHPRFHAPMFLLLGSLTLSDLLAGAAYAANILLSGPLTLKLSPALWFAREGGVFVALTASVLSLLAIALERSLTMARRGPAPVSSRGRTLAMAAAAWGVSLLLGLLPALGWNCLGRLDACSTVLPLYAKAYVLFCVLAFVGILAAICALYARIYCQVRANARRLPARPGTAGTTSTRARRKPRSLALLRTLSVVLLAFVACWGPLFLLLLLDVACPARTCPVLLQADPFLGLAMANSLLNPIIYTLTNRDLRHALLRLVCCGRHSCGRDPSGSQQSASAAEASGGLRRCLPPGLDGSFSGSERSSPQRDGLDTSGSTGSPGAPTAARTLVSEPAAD

Mu-type opioid receptor [12] = biological target: T1, Mu-type opioid receptor (Homo sapiens, UniProt P35372); experiment: mu opioid receptor blockers – image-based, SAR follow-up (AID 2420); assay type: functional;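 note: compounds added before stimulation of receptor with agonist DAMGO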
T1 sequence (P35372 whole entry): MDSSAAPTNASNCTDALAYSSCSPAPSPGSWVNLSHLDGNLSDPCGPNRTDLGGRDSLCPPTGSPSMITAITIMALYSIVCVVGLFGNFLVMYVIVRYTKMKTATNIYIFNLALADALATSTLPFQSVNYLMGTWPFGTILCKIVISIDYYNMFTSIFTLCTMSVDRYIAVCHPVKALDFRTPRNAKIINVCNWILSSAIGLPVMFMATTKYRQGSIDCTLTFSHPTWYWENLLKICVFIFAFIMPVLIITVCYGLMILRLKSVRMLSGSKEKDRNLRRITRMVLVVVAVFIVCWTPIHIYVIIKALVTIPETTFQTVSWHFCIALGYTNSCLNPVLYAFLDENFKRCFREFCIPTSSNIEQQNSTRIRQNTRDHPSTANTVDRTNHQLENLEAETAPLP

[13] = biological target: T2, Kappa-type opioid receptor (Homo sapiens, UniProt P41145); experiment: kappa opioid receptor activation potency – imaging, image-based, SAR follow-up (AID 2359); assay type: functional
T2 sequence (P41145 whole entry): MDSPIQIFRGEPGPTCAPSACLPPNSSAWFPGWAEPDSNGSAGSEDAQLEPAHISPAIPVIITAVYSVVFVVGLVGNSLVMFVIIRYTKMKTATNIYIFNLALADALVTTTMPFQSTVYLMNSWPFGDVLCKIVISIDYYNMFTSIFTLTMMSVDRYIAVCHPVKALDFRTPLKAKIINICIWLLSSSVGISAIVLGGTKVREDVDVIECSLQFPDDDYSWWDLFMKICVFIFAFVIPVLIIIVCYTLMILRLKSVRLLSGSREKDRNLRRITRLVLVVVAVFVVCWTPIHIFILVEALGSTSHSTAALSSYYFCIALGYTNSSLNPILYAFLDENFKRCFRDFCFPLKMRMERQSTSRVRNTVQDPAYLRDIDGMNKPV

[14] = biological target: T3, Delta-type opioid receptor (Homo sapiens, UniProt P41143); experiment: delta opioid receptor blockers – image-based, SAR follow-up (AID 2357); assay type: functional
T3 sequence (P41143 whole entry): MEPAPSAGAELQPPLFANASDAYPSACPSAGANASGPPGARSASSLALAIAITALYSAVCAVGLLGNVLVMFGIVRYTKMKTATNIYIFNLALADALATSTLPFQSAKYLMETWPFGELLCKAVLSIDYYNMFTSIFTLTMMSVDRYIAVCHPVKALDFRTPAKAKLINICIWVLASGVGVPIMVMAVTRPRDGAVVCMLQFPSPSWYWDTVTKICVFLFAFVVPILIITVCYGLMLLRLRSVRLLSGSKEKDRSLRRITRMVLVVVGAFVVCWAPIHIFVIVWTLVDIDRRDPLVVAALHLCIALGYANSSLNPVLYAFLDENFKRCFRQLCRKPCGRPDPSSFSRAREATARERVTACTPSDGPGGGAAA

[15] = biological target: T2, Kappa-type opioid receptor; experiment: kappa opioid receptor blockers, image-based, SAR follow-up (AID 2348); assay type: functional
[16] = biological target: T4, Short transient receptor potential channel 4 (Mus musculus, UniProt Q9QUQ5); experiment: calcium entry via TRPC4 opening agents – cell-based, HEK293 TRPC4/mu-opioid, Fluo-4 calcium, dose response (AID 434937); assay type: functional
T4 sequence (Q9QUQ5 whole entry): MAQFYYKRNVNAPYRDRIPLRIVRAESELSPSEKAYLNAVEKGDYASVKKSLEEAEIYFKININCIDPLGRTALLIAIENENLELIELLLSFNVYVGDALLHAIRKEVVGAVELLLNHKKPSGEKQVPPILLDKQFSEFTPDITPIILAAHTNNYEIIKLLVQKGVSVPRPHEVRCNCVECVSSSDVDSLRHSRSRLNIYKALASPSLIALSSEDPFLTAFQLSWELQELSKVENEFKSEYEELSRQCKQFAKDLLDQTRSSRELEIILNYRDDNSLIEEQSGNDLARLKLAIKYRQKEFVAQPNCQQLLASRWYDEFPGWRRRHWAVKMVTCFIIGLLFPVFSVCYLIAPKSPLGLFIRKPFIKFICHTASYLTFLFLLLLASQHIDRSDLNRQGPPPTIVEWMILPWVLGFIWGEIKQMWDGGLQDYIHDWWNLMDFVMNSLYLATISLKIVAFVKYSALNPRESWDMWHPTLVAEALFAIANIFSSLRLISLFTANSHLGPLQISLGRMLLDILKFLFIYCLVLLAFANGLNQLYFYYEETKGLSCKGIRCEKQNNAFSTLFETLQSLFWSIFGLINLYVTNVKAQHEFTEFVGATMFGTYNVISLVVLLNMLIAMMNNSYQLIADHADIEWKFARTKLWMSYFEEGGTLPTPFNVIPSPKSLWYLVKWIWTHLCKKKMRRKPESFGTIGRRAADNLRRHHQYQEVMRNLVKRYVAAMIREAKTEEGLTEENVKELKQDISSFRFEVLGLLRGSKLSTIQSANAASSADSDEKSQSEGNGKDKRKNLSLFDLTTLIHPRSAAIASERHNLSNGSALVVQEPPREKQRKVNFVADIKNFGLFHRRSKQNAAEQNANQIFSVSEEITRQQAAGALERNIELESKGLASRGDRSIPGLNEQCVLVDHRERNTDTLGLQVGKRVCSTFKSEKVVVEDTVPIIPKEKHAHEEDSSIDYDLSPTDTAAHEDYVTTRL

[17] = biological target: T3, Delta-type opioid receptor; experiment: DOR agonists, SAR follow-up, image-based (AID 2370); assay type: functional
Mu-type opioid receptor [18] = biological target: T1, Mu-type opioid receptor; experiment: mu opioid receptor activators, image-based, SAR follow-up (AID 2352); assay type: functional
[19] = biological target: T2, Kappa-type opioid receptor; experiment: kappa opioid receptor blockers, cell-based, luminescence, beta-arrestin, SAR follow-up (AID 2285); assay type: functional
Mucolipin-3 = biological target: T5, Mucolipin-3 (Homo sapiens, UniProt Q8TDD5); experiment: Fluorescence counterscreen assay for […] agonists: dose response cell-based high-throughput screening assay to identify agonists of the transient receptor potential channel ML3 (TRPML3). [Related pubchem assays: 1424, 1448 ]; assay type: functional
T5 sequence (Q8TDD5 whole entry): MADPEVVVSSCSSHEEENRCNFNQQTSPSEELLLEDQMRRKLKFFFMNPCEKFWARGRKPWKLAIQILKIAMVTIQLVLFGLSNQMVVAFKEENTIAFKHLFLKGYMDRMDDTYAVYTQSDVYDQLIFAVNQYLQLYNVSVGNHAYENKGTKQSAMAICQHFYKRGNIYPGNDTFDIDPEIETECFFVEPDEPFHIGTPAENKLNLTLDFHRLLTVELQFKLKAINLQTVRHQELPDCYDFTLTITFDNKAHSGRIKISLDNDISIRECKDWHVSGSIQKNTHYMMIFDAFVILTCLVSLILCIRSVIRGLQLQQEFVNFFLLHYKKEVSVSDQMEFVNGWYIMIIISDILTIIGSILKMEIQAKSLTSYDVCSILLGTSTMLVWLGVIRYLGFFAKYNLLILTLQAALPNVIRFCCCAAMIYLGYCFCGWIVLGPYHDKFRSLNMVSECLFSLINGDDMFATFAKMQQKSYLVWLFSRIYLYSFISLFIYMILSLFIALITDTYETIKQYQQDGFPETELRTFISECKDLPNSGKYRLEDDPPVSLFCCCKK

Ion channel NompC = Ion channel NompC (Danio rerio, UniProt Q7T1G6); experiment: Dose response cell-based high-throughput screening assay for agonists of the transient receptor potential channel N1 (TRPN1). [Related pubchem assays (depositor defined):AID1424, AID1448]; assay type: functional
[20] = biological target: T6, Ubiquitin-conjugating enzyme E2 N (Homo sapiens, UniProt P61088); assay type: functional
T6 sequence (P61088 whole entry): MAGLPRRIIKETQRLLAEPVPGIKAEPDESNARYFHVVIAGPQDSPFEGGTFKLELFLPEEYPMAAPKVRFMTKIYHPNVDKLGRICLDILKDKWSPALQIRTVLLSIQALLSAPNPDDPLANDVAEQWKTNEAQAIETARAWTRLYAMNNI

[21] = biological target: T6, Ubiquitin-conjugating enzyme E2 N; assay type: functional; remark: listed apart in the source
Bcl-2-related protein A1 = biological target: T7, Bcl-2-related protein A1 (Mus musculus, UniProt Q07440); assay type: functional;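 note: confirmatory dose–response counterscreen on Bfl-1, used to check hits from a UBC13 polyubiquitin inhibitor campaign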
T7 sequence (Q07440 whole entry): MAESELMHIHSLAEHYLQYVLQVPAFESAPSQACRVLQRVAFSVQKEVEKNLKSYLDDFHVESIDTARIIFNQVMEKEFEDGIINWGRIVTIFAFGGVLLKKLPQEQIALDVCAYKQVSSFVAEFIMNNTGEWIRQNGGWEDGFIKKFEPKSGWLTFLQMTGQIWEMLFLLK

Sequence of Tumor necrosis factor (P01375 whole entry): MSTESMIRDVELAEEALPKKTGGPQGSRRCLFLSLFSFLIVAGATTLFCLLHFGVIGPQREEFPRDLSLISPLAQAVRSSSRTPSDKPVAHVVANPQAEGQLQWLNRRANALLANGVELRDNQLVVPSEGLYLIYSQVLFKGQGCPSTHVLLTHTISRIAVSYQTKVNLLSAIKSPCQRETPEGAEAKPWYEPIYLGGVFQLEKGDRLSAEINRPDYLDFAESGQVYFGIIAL

Compound: NC(=O)c1ccc(N2CCN(S(=O)(=O)c3ccccc3)CC2)c([N+](=O)[O-])c1
- IC50 (Tumor necrosis factor): > 20 µM (inactive)
- EC50 (HEK293 [1]): 4.72 µM (active)
- IC50 (HEK293 [2]): > 20 µM (inactive)
- IC50 (HEK293 [3]): 16 µM (active)
- IC50 [4]: 5.86 µM (active)
- IC50 (HEK293 [5]): > 20 µM (inactive)
- IC50 (HEK293 [6]): > 20 µM (inactive)

- EC50 [7]: 5.94 µM (active)
- IC50 [8]: 14.2 µM (inactive)
- IC50 [9]: > 25 µM (inactive)
- IC50 [10]: 25.4 µM (inactive)
- IC50 [11]: 9.62 µM (active)
Compound: Cc1cccc(C)c1NC(=O)c1ccc(-c2ccc(Cl)cc2Cl)o1

- IC50 (Mu-type opioid receptor [12]): 1.92 µM (active)
- EC50 [13]: > 32 µM (inactive)
- IC50 [14]: > 32 µM (inactive)
- IC50 [15]: 4.73 µM (active)
- EC50 [16]: 0.596 µM (active)
- EC50 [17]: 1.6 µM (active)
- EC50 (Mu-type opioid receptor [18]): > 32 µM (inactive)
- IC50 [19]: 6.72 µM (active)
Compound: CC(=O)c1ccc(S(=O)(=O)NCc2ccc(C(=O)NCC(c3ccccc3)N(C)C)cc2)cc1 (stereo unspecified)

- EC50 (Mucolipin-3): > 29.9 µM (not active)
- EC50 (Ion channel NompC): > 29.9 µM (inactive)
Compound: COc1cc(OC)c(C(=O)NC2CCCCCC2)cc1OC

- IC50 [20]: 5.33 µM (active)
- IC50 [21]: 12.9 µM (active)
- IC50 (Bcl-2-related protein A1): > 20 µM (inactive)
- EC50 [16]: 1.88 µM (active)
Compound: NCCCn1c(C(=O)c2cc(Cl)c(N)c(Cl)c2)c2ccccc2[n+]1[O-]
